# Source: the kinase profiling compilation of Christmann-Franck et al. (2016)
# Legend:
# Details in all cases: compound 10.0 µM
# AKT3 (human) = AKT3 (human) (UniProt Q9Y243)
# EPHB1 (human) = EPHB1 (human) (UniProt P54762)
# IKBKE (human) = IKBKE (human) (UniProt Q14164)
# MKNK1 (human) = MKNK1 (human) (UniProt Q9BUB5)
# STK38 (human) = STK38 (human) (UniProt Q15208)
# DSTYK (human) = DSTYK (human) (UniProt Q6XUX3)
# STK4 (human) = STK4 (human) (UniProt Q13043)
# CDK16 (human) = CDK16 (human) (UniProt Q00536)
# MAST1 (human) = MAST1 (human) (UniProt Q9Y2H9)
# CSNK1G2 (human) = CSNK1G2 (human) (UniProt P78368)
# SGK110 (human) = SGK110 (human) (UniProt P0C264)
# RPS6KA1 KD2 (human) = RPS6KA1 KD2 (human) (UniProt Q15418)
# MYO3A (human) = MYO3A (human) (UniProt Q8NEV4)
# TTK (human) = TTK (human) (UniProt P33981)
# Sequence of TTK (human) (P33981 whole entry, looked up): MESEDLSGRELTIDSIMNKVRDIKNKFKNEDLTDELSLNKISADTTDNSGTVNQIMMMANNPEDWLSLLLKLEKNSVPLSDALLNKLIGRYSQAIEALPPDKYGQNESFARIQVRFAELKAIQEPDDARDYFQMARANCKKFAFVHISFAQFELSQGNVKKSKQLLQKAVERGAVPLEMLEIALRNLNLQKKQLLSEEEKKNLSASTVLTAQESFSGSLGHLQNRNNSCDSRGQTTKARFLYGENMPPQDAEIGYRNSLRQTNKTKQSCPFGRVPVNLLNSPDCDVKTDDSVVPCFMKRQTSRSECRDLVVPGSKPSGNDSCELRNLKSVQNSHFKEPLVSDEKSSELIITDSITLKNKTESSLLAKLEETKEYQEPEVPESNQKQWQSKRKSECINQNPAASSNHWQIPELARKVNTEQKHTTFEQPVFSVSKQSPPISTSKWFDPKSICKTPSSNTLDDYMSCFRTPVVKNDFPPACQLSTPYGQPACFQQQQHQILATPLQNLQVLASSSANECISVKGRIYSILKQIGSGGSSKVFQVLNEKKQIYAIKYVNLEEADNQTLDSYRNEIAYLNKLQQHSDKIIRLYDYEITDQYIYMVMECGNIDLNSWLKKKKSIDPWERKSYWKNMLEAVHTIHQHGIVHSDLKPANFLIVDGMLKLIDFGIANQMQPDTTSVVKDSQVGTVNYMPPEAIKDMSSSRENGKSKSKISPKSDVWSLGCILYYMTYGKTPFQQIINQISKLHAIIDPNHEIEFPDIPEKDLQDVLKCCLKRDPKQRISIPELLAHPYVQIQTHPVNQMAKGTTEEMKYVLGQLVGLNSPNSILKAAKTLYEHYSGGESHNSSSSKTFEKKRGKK
# RPS6KA2 KD2 (human) = RPS6KA2 KD2 (human) (UniProt Q15349)
# MAP3K4 (human) = MAP3K4 (human) (UniProt Q9Y6R4)
# CDK11B (human) = CDK11B (human) (UniProt P21127)
# GRK1 (human) = GRK1 (human) (UniProt Q15835)
# CSNK1A1 (human) = CSNK1A1 (human) (UniProt P48729)
# [1] = tested on: KIT (human), P10721 [L576P]
# TAOK2 (human) = TAOK2 (human) (UniProt Q9UL54)
# CDC42BPG (human) = CDC42BPG (human) (UniProt Q6DT37)
# Sequence of CDC42BPG (human) (Q6DT37 whole entry, looked up): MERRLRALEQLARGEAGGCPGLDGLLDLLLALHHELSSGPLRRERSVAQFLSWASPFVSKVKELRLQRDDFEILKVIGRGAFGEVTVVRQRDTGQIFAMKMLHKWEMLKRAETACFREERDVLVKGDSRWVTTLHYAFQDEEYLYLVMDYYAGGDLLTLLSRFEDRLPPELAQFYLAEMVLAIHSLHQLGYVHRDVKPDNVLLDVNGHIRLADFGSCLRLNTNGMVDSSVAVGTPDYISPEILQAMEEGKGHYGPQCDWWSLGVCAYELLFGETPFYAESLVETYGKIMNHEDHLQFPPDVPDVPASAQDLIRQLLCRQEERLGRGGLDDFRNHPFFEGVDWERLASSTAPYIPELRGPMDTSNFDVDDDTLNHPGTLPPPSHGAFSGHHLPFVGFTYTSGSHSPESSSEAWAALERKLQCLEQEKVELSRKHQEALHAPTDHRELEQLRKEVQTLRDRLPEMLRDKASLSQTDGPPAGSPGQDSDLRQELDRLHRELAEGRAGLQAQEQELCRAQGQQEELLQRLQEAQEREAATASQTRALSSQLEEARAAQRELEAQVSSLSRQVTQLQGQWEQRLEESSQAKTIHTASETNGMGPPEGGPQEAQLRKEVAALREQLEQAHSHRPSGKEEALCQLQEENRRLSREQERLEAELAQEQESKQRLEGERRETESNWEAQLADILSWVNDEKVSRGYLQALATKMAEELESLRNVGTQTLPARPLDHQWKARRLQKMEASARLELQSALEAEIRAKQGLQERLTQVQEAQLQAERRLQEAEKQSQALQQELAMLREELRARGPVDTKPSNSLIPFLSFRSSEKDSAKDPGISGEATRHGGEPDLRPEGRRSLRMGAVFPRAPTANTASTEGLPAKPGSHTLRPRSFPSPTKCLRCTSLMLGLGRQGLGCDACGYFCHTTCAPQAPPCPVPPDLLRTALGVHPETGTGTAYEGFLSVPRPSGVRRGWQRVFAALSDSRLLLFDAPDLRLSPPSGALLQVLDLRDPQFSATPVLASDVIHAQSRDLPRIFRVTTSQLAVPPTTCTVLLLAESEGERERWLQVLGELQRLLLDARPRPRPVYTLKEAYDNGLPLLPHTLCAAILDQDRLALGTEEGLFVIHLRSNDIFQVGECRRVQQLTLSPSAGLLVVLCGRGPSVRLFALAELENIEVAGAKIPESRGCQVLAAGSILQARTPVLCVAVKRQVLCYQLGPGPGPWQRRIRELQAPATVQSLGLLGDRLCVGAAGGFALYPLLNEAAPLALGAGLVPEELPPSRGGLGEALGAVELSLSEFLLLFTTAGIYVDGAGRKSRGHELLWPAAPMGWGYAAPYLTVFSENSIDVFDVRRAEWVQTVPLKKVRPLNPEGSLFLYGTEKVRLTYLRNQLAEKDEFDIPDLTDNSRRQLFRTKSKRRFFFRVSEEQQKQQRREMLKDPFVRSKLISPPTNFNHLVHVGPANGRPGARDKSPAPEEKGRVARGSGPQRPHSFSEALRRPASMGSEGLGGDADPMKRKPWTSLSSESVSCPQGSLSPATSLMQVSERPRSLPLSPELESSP
# YES1 (human) = YES1 (human) (UniProt P07947)
# INSRR (human) = INSRR (human) (UniProt P14616)
# Sequence of INSRR (human) (P14616 whole entry, looked up): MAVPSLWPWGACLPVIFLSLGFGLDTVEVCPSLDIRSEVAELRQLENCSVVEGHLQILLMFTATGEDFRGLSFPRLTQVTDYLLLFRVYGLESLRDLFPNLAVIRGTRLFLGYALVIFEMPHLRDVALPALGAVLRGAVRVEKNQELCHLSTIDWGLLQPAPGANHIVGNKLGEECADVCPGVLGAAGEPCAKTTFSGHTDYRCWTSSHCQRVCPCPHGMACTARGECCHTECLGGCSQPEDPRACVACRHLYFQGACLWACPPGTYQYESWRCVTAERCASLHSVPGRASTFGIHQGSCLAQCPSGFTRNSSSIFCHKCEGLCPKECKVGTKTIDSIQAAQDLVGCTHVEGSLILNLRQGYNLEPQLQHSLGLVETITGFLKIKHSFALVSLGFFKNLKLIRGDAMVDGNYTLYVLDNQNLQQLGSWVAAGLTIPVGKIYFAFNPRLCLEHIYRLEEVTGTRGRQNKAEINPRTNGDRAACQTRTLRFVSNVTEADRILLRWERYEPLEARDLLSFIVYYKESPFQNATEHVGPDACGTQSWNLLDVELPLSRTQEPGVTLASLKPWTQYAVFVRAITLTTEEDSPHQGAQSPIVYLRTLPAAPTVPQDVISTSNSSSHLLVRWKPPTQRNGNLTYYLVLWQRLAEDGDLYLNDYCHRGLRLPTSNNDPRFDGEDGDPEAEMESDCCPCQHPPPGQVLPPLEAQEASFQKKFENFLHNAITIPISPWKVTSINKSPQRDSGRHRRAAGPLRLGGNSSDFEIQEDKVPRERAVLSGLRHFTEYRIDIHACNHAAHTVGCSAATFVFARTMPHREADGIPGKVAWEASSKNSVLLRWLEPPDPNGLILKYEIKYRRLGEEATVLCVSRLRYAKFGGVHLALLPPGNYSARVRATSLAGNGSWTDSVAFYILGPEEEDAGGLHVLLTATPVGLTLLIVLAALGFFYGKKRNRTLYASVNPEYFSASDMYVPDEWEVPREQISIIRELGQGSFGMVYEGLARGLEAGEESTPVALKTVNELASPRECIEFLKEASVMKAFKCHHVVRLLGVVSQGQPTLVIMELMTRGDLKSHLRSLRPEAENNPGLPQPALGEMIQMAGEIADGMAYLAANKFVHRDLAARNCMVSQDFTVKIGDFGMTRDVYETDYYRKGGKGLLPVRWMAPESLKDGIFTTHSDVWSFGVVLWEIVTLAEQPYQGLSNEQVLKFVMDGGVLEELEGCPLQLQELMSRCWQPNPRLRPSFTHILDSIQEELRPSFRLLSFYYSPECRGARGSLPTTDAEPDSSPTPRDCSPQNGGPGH
# IRAK1 (human) = IRAK1 (human) (UniProt P51617)
# MAPK11 (human) = MAPK11 (human) (UniProt Q15759)
# CDK15 (human) = CDK15 (human) (UniProt Q96Q40)
# CPK1 (P.falciparum) = tested on: CPK1 (P.falciparum)
# AKT1 (human) = AKT1 (human) (UniProt P31749)
# CLK1 (human) = CLK1 (human) (UniProt P49759)
# [2] = tested on: MET (human), P08581 [Y1235D]
# PRKCH (human) = PRKCH (human) (UniProt P24723)
# MAP4K1 (human) = MAP4K1 (human) (UniProt Q92918)
# BTK (human) = BTK (human) (UniProt Q06187)
# CDK5 (human) = CDK5 (human) (UniProt Q00535)
# Sequence of CDK5 (human) (Q00535 whole entry, looked up): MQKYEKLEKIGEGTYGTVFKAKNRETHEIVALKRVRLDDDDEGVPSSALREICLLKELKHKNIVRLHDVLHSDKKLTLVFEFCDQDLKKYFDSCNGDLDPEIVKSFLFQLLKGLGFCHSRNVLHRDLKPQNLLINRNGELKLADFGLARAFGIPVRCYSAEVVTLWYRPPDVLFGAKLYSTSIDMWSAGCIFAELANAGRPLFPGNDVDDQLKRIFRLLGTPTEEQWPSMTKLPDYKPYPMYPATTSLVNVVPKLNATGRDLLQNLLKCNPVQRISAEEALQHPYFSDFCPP
# DYRK1B (human) = DYRK1B (human) (UniProt Q9Y463)
# Sequence of DYRK1B (human) (Q9Y463 whole entry, looked up): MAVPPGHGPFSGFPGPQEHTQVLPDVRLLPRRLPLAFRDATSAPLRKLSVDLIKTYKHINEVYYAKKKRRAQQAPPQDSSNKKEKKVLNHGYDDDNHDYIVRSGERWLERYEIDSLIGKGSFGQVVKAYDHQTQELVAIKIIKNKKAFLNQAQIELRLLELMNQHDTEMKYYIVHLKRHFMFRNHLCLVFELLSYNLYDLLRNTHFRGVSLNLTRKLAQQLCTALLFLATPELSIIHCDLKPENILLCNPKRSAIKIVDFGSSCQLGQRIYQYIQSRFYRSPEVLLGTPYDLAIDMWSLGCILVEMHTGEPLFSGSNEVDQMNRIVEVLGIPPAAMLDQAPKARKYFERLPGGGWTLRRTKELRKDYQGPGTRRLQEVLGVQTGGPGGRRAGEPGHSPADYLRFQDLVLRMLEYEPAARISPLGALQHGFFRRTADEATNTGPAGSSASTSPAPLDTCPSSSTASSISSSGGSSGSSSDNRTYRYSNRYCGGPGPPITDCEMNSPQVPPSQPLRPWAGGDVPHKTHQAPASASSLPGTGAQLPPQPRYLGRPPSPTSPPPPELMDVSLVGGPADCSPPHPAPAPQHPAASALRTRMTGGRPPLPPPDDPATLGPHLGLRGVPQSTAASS
# STK36 (human) = STK36 (human) (UniProt Q9NRP7)
# AAK1 (human) = AAK1 (human) (UniProt Q2M2I8)
# RIPK4 (human) = RIPK4 (human) (UniProt P57078)
# CaMK1 (human) = CaMK1 (human) (UniProt Q14012)
# TXK (human) = TXK (human) (UniProt P42681)
# EIF2AK1 (human) = EIF2AK1 (human) (UniProt Q9BQI3)
# Sequence of STK38 (human) (Q15208 whole entry, looked up): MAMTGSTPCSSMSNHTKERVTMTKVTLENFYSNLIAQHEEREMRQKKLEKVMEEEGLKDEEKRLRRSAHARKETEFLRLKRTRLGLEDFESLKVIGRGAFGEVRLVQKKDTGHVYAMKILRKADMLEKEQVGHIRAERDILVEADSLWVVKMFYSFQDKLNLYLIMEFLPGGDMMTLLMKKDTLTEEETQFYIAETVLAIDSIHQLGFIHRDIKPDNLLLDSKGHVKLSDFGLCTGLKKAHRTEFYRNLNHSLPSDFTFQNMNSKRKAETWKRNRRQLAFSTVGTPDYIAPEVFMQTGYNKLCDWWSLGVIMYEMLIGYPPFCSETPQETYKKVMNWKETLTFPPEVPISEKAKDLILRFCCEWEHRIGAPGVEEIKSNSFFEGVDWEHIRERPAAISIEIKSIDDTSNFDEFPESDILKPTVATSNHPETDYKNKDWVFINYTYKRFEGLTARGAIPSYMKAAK
compound,measurement,setting,value
CNC(=O)c1cc(Oc2ccc(NC(=O)Nc3ccc(Cl)c(C(F)(F)F)c3)cc2)ccn1,per cent of control,AKT3 (human),90%
same,per cent of control,EPHB1 (human),18%
same,per cent of control,IKBKE (human),100%
same,per cent of control,MKNK1 (human),1.6%
same,per cent of control,STK38 (human),100%
same,per cent of control,DSTYK (human),100%
same,per cent of control,STK4 (human),96%
same,per cent of control,CDK16 (human),68%
same,per cent of control,MAST1 (human),100%
same,per cent of control,CSNK1G2 (human),100%
same,per cent of control,SGK110 (human),91%
same,per cent of control,RPS6KA1 KD2 (human),77%
same,per cent of control,MYO3A (human),44%
same,per cent of control,TTK (human),15%
same,per cent of control,RPS6KA2 KD2 (human),59%
same,per cent of control,MAP3K4 (human),94%
same,per cent of control,CDK11B (human),93%
same,per cent of control,GRK1 (human),100%
same,per cent of control,CSNK1A1 (human),100%
same,per cent of control,[1],0%
same,per cent of control,TAOK2 (human),0.65%
same,per cent of control,CDC42BPG (human),84%
same,per cent of control,YES1 (human),41%
same,per cent of control,INSRR (human),86%
same,per cent of control,IRAK1 (human),76%
same,per cent of control,MAPK11 (human),0.05%
same,per cent of control,CDK15 (human),7.4%
same,per cent of control,CPK1 (P.falciparum),0.8%
same,per cent of control,AKT1 (human),100%
same,per cent of control,CLK1 (human),29%
same,per cent of control,[2],60%
same,per cent of control,PRKCH (human),89%
same,per cent of control,MAP4K1 (human),19%
same,per cent of control,BTK (human),62%
same,per cent of control,CDK5 (human),22%
same,per cent of control,DYRK1B (human),67%
same,per cent of control,STK36 (human),16%
same,per cent of control,AAK1 (human),100%
same,per cent of control,RIPK4 (human),100%
same,per cent of control,CaMK1 (human),87%
same,per cent of control,TXK (human),98%
same,per cent of control,EIF2AK1 (human),100%
CNC(=O)c1cc(Oc2ccc(NC(=O)Nc3ccc(Cl)c(C(F)(F)F)c3)cc2)cc[n+]1[O-],per cent of control,AKT3 (human),93%
same,per cent of control,EPHB1 (human),20%
same,per cent of control,IKBKE (human),100%
same,per cent of control,MKNK1 (human),1%
same,per cent of control,STK38 (human),100%
same,per cent of control,DSTYK (human),68%
same,per cent of control,STK4 (human),42%
same,per cent of control,CDK16 (human),19%
same,per cent of control,MAST1 (human),100%
same,per cent of control,CSNK1G2 (human),100%
same,per cent of control,SGK110 (human),100%
same,per cent of control,RPS6KA1 KD2 (human),58%
same,per cent of control,MYO3A (human),14%
same,per cent of control,TTK (human),9%
same,per cent of control,RPS6KA2 KD2 (human),42%
same,per cent of control,MAP3K4 (human),93%
same,per cent of control,CDK11B (human),100%
same,per cent of control,GRK1 (human),100%
same,per cent of control,CSNK1A1 (human),100%
same,per cent of control,[1],0%
same,per cent of control,TAOK2 (human),8%
same,per cent of control,CDC42BPG (human),86%
same,per cent of control,YES1 (human),68%
same,per cent of control,INSRR (human),86%
same,per cent of control,IRAK1 (human),22%
same,per cent of control,MAPK11 (human),0%
same,per cent of control,CDK15 (human),9.6%
same,per cent of control,CPK1 (P.falciparum),0.15%
same,per cent of control,AKT1 (human),100%
same,per cent of control,CLK1 (human),46%
same,per cent of control,[2],11%
same,per cent of control,PRKCH (human),84%
same,per cent of control,MAP4K1 (human),6%
same,per cent of control,BTK (human),30%
same,per cent of control,CDK5 (human),12%
same,per cent of control,DYRK1B (human),69%
same,per cent of control,STK36 (human),26%
same,per cent of control,AAK1 (human),100%
same,per cent of control,RIPK4 (human),100%
same,per cent of control,CaMK1 (human),58%
same,per cent of control,TXK (human),78%
same,per cent of control,EIF2AK1 (human),100%
